Laboratory results as given in PMC9944328 (Nature Communications, 2023).
Like-named read-outs stand apart in the source and are kept apart here.

Tested on: SSTR2 mutants
Experiment: NanoBiT β-arrestin 1 recruitment assay, HEK293 (SSTR2 mutants);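 as to Top: percent of maximal wild-type response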
Assay type: cell-based, human
Parameters: Bottom / Span / Bottom (best-fit) / Span (best-fit) / Best-fit values Bottom / Best-fit values Span / Bottom (best-fit value) / Span (best-fit value):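 percent of maximal wild-type response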
Settings: for EC50: read-out: EC50
Protocol: The NanoBiT β-arrestin 1 recruitment assays were carried out according to the method described previously. […] Human full-length SSTR wild-type and mutant vectors were C-terminally fused with a 15-amino acid flexible linker and the small fragment (SmBiT). HEK293 cells were seeded into six-well microplates at a density of 1.0 × 10^6 cells/well and cultured for 24 h at 37 °C with 5% CO2. After that, cells were co-transfected with pcDNA3.1+ vectors encoding SSTR wild-type or mutants and human β-arrestin 1. After transfecting for 24 h, the transfected cells were suspended and seeded into white 96-well plates, and then cultured at 37 °C overnight. After that the medium in each well was exchanged for 90 μl of 0.01% bovine serum albumin containing 20 μl of 50 μM coelenterazine h (Carbosynth) diluted in the HBSS assay buffer and incubated for 40 min at room temperature. Then, ligands diluted in the assay buffer was added to each well and the luminescence intensity was measured using the Synergy H1 microplate reader and detected at room temperature in a time period. All data presented are means of at least three independent experiments.

[1] = best-fit value, T194A-1 (run 1)
[2] = best-fit value, T194A-2 (run 2)
[3] = best-fit value, T194A-3 (run 3)
[4] = best-fit value, V103A-1 (run 1)
[5] = best-fit value, V103A-2 (run 2)
[6] = best-fit value, V103A-3 (run 3)

C[C@@H](O)[C@@H]1NC(=O)[C@H](CCCCN)NC(=O)[C@@H](Cc2c[nH]c3ccccc23)NC(=O)[C@H](Cc2ccccc2)NC(=O)[C@@H](NC(=O)[C@H](N)Cc2ccccc2)CSSC[C@@H](C(=O)N[C@H](CO)[C@@H](C)O)NC1=O [octreotide]
LogEC50 (best-fit value, L99A-3 (run 3)): -6.902 | Span (best-fit value, L99A-3 (run 3)): 131.2 | Top (best-fit value, L99A-3 (run 3)): 128.3 | LogEC50 [1]: -7.278 | Span [1]: 56.43 | EC50 [1]: 52.8 nM | LogEC50 [2]: -7.381 | Span [2]: 55.9 | EC50 [2]: 41.6 nM | LogEC50 [3]: -7.29 | Span [3]: 56.81 | EC50 [3]: 51.3 nM | Bottom [4]: -1.867 | LogEC50 [4]: -7.141 | Span [4]: 86.59 | Top [4]: 84.73 | EC50 [4]: 72.2 nM | Bottom [5]: -2.214 | LogEC50 [5]: -7.263 | Span [5]: 87.54 | Top [5]: 85.33 | EC50 [5]: 54.6 nM | Bottom [6]: -2.646 | LogEC50 [6]: -7.193 | Span [6]: 87.08 | Top [6]: 84.44 | EC50 [6]: 64.1 nM | Bottom (best-fit value, Y50A-1 (run 1)): -0.1631 | LogEC50 (best-fit value, Y50A-1 (run 1)): -8.742 | Span (best-fit value, Y50A-1 (run 1)): 56.29 | Top (best-fit value, Y50A-1 (run 1)): 56.13 | EC50 (best-fit value, Y50A-1 (run 1)): 1.81 nM | Bottom (best-fit value, Y50A-2 (run 2)): -2.513 | LogEC50 (best-fit value, Y50A-2 (run 2)): -7.952 | Span (best-fit value, Y50A-2 (run 2)): 74.92 | Top (best-fit value, Y50A-2 (run 2)): 72.41 | EC50 (best-fit value, Y50A-2 (run 2)): 11.2 nM | Bottom (best-fit value, Y50A-3 (run 3)): -0.965 | LogEC50 (best-fit value, Y50A-3 (run 3)): -8.796 | Span (best-fit value, Y50A-3 (run 3)): 58.15 | Top (best-fit value, Y50A-3 (run 3)): 57.19 | EC50 (best-fit value, Y50A-3 (run 3)): 1.6 nM | Bottom (best-fit, I284A-1): 2.896 | LogEC50 (best-fit, I284A-1): -7.134 | Span (best-fit, I284A-1): 74.77 | Top (best-fit, I284A-1): 77.67 | EC50 (best-fit, I284A-1): 73.4 nM | Bottom (best-fit, I284A-2): -1.923 | LogEC50 (best-fit, I284A-2): -7.815 | Span (best-fit, I284A-2): 108.7 | Top (best-fit, I284A-2): 106.8 | EC50 (best-fit, I284A-2): 15.3 nM | Bottom (best-fit, I284A-3): 2.808 | LogEC50 (best-fit, I284A-3): -7.106 | Span (best-fit, I284A-3): 79.8 | Top (best-fit, I284A-3): 82.61 | EC50 (best-fit, I284A-3): 78.4 nM | LogEC50 (best-fit, P286A-1): -8.053 | Span (best-fit, P286A-1): 62.29 | Top (best-fit, P286A-1): 66.68 | EC50 (best-fit, P286A-1): 8.86 nM | Bottom (best-fit, P286A-2): 2.819 | LogEC50 (best-fit, P286A-2): -8.168 | Span (best-fit, P286A-2): 59.43 | Top (best-fit, P286A-2): 62.25 | EC50 (best-fit, P286A-2): 6.79 nM | Bottom (best-fit, P286A-3): 4.198 | LogEC50 (best-fit, P286A-3): -8.213 | Span (best-fit, P286A-3): 84.87 | Top (best-fit, P286A-3): 89.07 | EC50 (best-fit, P286A-3): 6.12 nM | Bottom (best-fit, S285A-1): 2.2 | LogEC50 (best-fit, S285A-1): -9.537 | Span (best-fit, S285A-1): 70 | Top (best-fit, S285A-1): 72.2 | EC50 (best-fit, S285A-1): 0.29 nM | Bottom (best-fit, S285A-2): 3.756 | LogEC50 (best-fit, S285A-2): -9.426 | Span (best-fit, S285A-2): 71.47 | Top (best-fit, S285A-2): 75.22 | EC50 (best-fit, S285A-2): 0.375 nM
